In patent US20240216369A1, “THE USE OF A SPLICING MODULATOR FOR A TREATMENT SLOWING PROGRESSION OF HUNTINGTON'S DISEASE” (Novartis AG, priority 2019, published 2024):
Entries after “also recorded” stand apart in the source; their conditions may differ.

Experiments:
Adult ACAT/PBPK model = experiment: Adult ACAT/PBPK model; design: species or system human; conditions: pediatric value entered
Procedure: To scale up the branaplam pediatric ACAT/PBPK model to an adult ACAT/PBPK model, adult CL projected from nonclinical species was applied to replace the pediatric CL, and the body weight of 70 kg was used. Dose volume was set 250 mL. The distribution parameters estimated for the pediatric patients were entered to the adult PK model. […] Model predictions of branaplam exposures after single oral administration of branaplam to adults are depicted in Table 5.

HTT transcript = experiment: Single oral dose in BacHD mice: HTT transcripts in brain and blood (qPCR); assay type: in vivo
Procedure: Twenty-eight BacHD mice (FVB/N-Tg(HTT*97Q)|Xwy/J transgenic mice—Jackson Laboratories) were used for the experiment. Animal protocols were approved by the Children's Hospital of Philadelphia Institutional Animal Care and use Committee. Mice were housed in a temperature-controlled environment on a 12-h light/dark cycle. Food and water were provided ad libitum.
A single dose of branaplam or vehicle solution was administered by oral gavage. Mice were divided in seven groups (n=4 mice/group) and treated with branaplam (10 mg/kg—2 groups) and 50 mg/kg—3 groups), or vehicle (2 groups) as control. Mice were firmly restrained by grasping the loose skin to immobilize the head, maintained in a vertical position and a 22- to 26-gauge gavage needle was placed in the side of the mouth. The needle was guided following the roof of the mouth into the esophagus and allowed to gently enter in the stomach. The amount of branaplam or vehicle administrated to each mouse was based on the weight recorded before treatment.
At 8 h, 24 h (vehicle and branaplam 10 mg/kg & 50 mg/kg), and 48 h (branaplam 50 mg/kg) after oral gavage, blood and tissue samples were obtained for PK and PD analysis. Mice were anesthetized with isoflurane and blood was obtained via submandibular vein bleeds and collected for RNA extraction (PD analysis) using RNAprotect Animal Blood Tubes, and plasma (PK analysis) using K2EDTA coated tubes. Cells were removed from plasma by centrifugation for 10 min at 2000×g at 4° C., and plasma samples were stored at −80° C. Following blood collection, mice were anesthetized with a lethal dose of ketamine/xylazine ([…] of a 10 mg:1 mg), and perfused with 18 ml of 0.9% cold saline mixed with 2 ml of RNAlater (Ambion) solution for tissue collection. Liver, skeletal muscle, cerebrum, and cerebellum samples were flash frozen in liquid nitrogen and stored at −80° C.
In experiments, as herein described, the branaplam dose is provided as a solution of branaplam monohydrochloride salt (10 mg/mL suspension) in methyl cellulose, medium viscosity 400 cP for a 1% solution), Tween 80 (1% v/v), purified water suspension formulation.
Total RNA from cerebrum and cerebellum was extracted using RNeasy Plus kit (Qiagen) after homogenized in Precellys at 6000 rpm for 40 sec. RNA from blood was extracted using PAXgene blood RNA kit (Qiagen) according to manufacturer protocol. The RNA was quantified by Nanodrop 2000 (Thermo Scientific). cDNAs were synthesized from 140-400 ng RNA using Maxima First strand cDNA synthesis kit using a mix of oligo dT and random hexamers (Thermo Scientific) in 20 uL reaction at 25° C. for 10 min, 50° C. for 15 min then 85° C. for 5 min. Quantitative PCR was performed using Taqman Fast Advanced master mix (Thermo Scientific) in 20 uL with 4 uL of cDNA reaction and primers specific for each genes. The PCR steps were as follows: 95° C. for 20 sec then 40 cycles of 95° C. for 1 sec, 55° C. for 20 sec. […] Relative quantification of gene expression was performed using 2^−ΔΔCT method. Fold changes in the mRNA expression level was calculated following normalization to mouse glucuronidase beta (Gusb) as an endogenous reference.

[1] = single oral dose 10 or 50 mg/kg, listed as branaplam

CC1(C)CC(Oc2ccc(-c3ccc(-c4cn[nH]c4)cc3O)nn2)CC(C)(C)N1 [Compound 18, 5-(1H-pyrazol-4-yl)-2-(6-((2,2,6,6-tetramethylpiperidin-4-yl)oxy)pyridazin-3-yl)phenol]
Vc (Adult ACAT/PBPK model): 3.62 (Optimized value using GastroPlus ™ based on the 1/h | k12 (Adult ACAT/PBPK model): 1.41 (Optimized value using GastroPlus ™ based on the 1/h | k21 (Adult ACAT/PBPK model): 0.144 (Optimized value using GastroPlus ™ based on the 1/h | novel-exon-containing HTT transcript levels in brain (HTT transcript; single oral dose 50 mg/kg, 48 h after dosing): trend towards return to vehicle levels | novel-exon-containing HTT transcript levels in brain (HTT transcript; single oral dose 10 or 50 mg/kg, 8 and 24 h after dosing, listed as branaplam): elevates; also recorded: dose dependent increase | total HTT transcript levels in brain (HTT transcript; single oral dose 10 or 50 mg/kg, 8 h and 24 h, listed as branaplam): lowers; also recorded: lowering trend at 8 h; also recorded: greater degree of lowering at the 50 mg/kg level, 24 hours post-dosing | novel-exon-containing HTT transcript levels in blood (HTT transcript; [1]): elevates; also recorded: robust modulation | total HTT transcript levels in blood (HTT transcript; [1]): lowers; also recorded: lowering
